Reference: patent US20240148821A1, “PHARMACEUTICAL USE OF CYCLIC PEPTIDE COMPOUND” (CHUGAI SEIYAKU KABUSHIKI KAISHA, priority 2021, published 2024)
Numbered stars: 1 amine (or outer) side, 2 acyl side, 3 side chain; on linkers, the order of the positions; unused ones are H or OH. Bridge positions count the residues as written; N and C are the ends. Square brackets hold non-standard residues; d marks the D form. Peptide text beside a SMILES is read from it. * marks the point of attachment. hPhe(3-Cl-4-CF3) = N[C@@H](CCc1ccc(C(F)(F)F)c(Cl)c1)C(=O)O; hPhe(3-F,4-CF3) = N[C@@H](CCc1ccc(C(F)(F)F)c(F)c1)C(=O)O; hPhe(4-CF3) = N[C@@H](CCc1ccc(C(F)(F)F)cc1)C(=O)O; NMePhe(4-Cl) = CN[C@@H](Cc1ccc(Cl)cc1)C(=O)O; NMePhe(4-Me) = CN[C@@H](Cc1ccc(C)cc1)C(=O)O; hPhe(3-Cl) = N[C@@H](CCc1cccc(Cl)c1)C(=O)O; X42 = CC(C)C[C@H](CC(=O)[*:2])N(C)[*:1]; mXylylene = c1cc(C[*:1])cc(C[*:2])c1; NMeGly(cBu) = CN[C@H](C(=O)O)C1CCC1; NMeCha = CN[C@@H](CC1CCCCC1)C(=O)O; X76 = C=CC[C@H](CC(=O)[*:2])N[*:1]; Gly(N-(CH2)2OEt) = CCOCCNCC(=O)O; Hyp = O=C(O)[C@@H]1C[C@@H](O)CN1; NMeAhp(2) = CCCCC[C@H](NC)C(=O)O; NMeChg = CN[C@H](C(=O)O)C1CCCCC1; NMeI = CC[C@H](C)[C@H](NC)C(=O)O; Piperidide(4-Me) = CC1CCN(*)CC1; NMeD = CN[C@@H](CC(=O)O)C(=O)O; NMeL = CN[C@@H](CC(C)C)C(=O)O; NMeV = CN[C@H](C(=O)O)C(C)C; d(β3hA) = C[C@@H](N)CC(=O)O; NMeA = CN[C@@H](C)C(=O)O; Piperidide = C1CCN(*)CC1; Pyrrolidide = C1CCN(*)C1; Ac5c = NC1(C(=O)O)CCCC1; Aze = O=C(O)[C@@H]1CCN1; X14 = c1cc(C*)cs1; Sar = CNCC(=O)O

These compounds were tested against protein-protein interaction between Kras and SOS1 (biotin-tagged human Kras loaded with GDP, His-tagged human SOS1) (Homo sapiens (Human), UniProt P01116, G12D) (assay: Protein-protein interaction inhibition between Kras and SOS1 (KrasG12D-SOS PPI) using AlphaScreen). Conditions: AlphaScreen; biotin-tagged human Kras loaded with GDP, His-tagged human SOS1; read-out: KRAS G12D-SOS PPI IC50.
Assay type: biochemical
`CC[C@H](C)[C@@H]1NC(=O)[C@H](CC(C)C)N(C)C(=O)C[C@@H](C(=O)N2CCCCC2)N(C)C(=O)[C@H](C(C)C)N(C)C(=O)C2(CCCC2)NC(=O)[C@@H]2CCCN2C(=O)[C@H](CCc2ccc(C(F)(F)F)c(F)c2)NC(=O)CN(C)C(=O)[C@H](CC2CCCCC2)N(C)C(=O)[C@@H]2CCN2C(=O)CN(C)C1=O` [Compound 599] ([NMeL]I[Sar][Aze][NMeCha][Sar][hPhe(3-F,4-CF3)]P[Ac5c][NMeV][NMeD]-Piperidide; lactam N-11) gave an IC50 of 12 nM.
With `CC[C@H](C)[C@@H]1NC(=O)[C@H](CC(C)C)N(C)C(=O)C[C@@H](C(=O)N2CCCCC2)N(C)C(=O)[C@H](C2CCC2)N(C)C(=O)C2(CCCC2)NC(=O)[C@@H]2CCCN2C(=O)[C@H](CCc2ccc(C(F)(F)F)c(Cl)c2)NC(=O)CN(C)C(=O)[C@H](CC2CCCCC2)N(C)C(=O)[C@@H]2CCN2C(=O)[C@H](C)N(C)C1=O` [Compound 672] ([NMeL]I[NMeA][Aze][NMeCha][Sar][hPhe(3-Cl-4-CF3)]P[Ac5c][NMeGly(cBu)][NMeD]-Piperidide; lactam N-11) the IC50 was 2.5 nM.
With `CC[C@H](C)[C@@H]1NC(=O)[C@H](CC(C)C)N(C)C(=O)C[C@@H](C(=O)N2CCCCC2)N(C)C(=O)[C@H](CC(C)C)N(C)C(=O)C2(CCCC2)NC(=O)[C@@H]2C[C@@H](OCc3cccc(C)c3)CN2C(=O)[C@H](CCc2ccc(C(F)(F)F)c(F)c2)NC(=O)CN(C)C(=O)[C@H](CC2CCCCC2)N(C)C(=O)CN(C)C(=O)CN(C)C1=O` [Compound 2125] ([NMeL]I[Sar][Sar][NMeCha][Sar][hPhe(3-F,4-CF3)][Hyp](mXylylene)[Ac5c][NMeL][NMeD]-Piperidide; lactam N-11) the IC50 was 16 nM.
Compound `CC[C@H](C)[C@@H]1NC(=O)[C@H](CC(C)C)N(C)C(=O)C[C@@H](C(=O)N2CCC(C)CC2)N(C)C(=O)[C@H](C(C)C)N(C)C(=O)C2(CCCC2)NC(=O)[C@@H]2CCCN2C(=O)[C@H](CCc2ccc(C(F)(F)F)c(Cl)c2)NC(=O)CN(C)C(=O)[C@H](CC2CCCCC2)N(C)C(=O)[C@@H]2CCN2C(=O)[C@H](C)N(C)C1=O` [Compound 1291] ([NMeL]I[NMeA][Aze][NMeCha][Sar][hPhe(3-Cl-4-CF3)]P[Ac5c][NMeV][NMeD]-{Piperidide(4-Me)}; lactam N-11) has an IC50 of 5.4 nM.
`CC[C@H](C)[C@@H]1NC(=O)[C@H](C)N(C)C(=O)C[C@@H](C(=O)N2CCCCC2)N(C)C(=O)[C@H](C(C)C)N(C)C(=O)C2(CCCC2)NC(=O)[C@@H]2CCCN2C(=O)[C@H](CCc2cccc(Cl)c2)NC(=O)CN(C)C(=O)[C@H](CC2CCCCC2)N(C)C(=O)[C@@H]2CCN2C(=O)[C@H](C)N(C)C1=O` [Compound 625] ([NMeA]I[NMeA][Aze][NMeCha][Sar][hPhe(3-Cl)]P[Ac5c][NMeV][NMeD]-Piperidide; lactam N-11) gave an IC50 of 70 nM.
Compound `CC[C@H](C)[C@@H]1NC(=O)[C@H](CC(C)C)N(C)C(=O)C[C@@H](C)NC(=O)[C@H](CC(C)C)N(C)C(=O)C2(CCCC2)NC(=O)[C@H](CC(C)C)N(C)C(=O)[C@H](CCc2ccc(C(F)(F)F)cc2)NC(=O)CN(C)C(=O)[C@H](Cc2ccc(Cl)cc2)N(C)C(=O)CN(C)C(=O)CN(C)C1=O` [Compound 843] (cyclo([Ac5c][NMeL][d(β3hA)][NMeL]I[Sar][Sar][NMePhe(4-Cl)][Sar][hPhe(4-CF3)][NMeL])) has an IC50 of 49 nM.
Compound `CC[C@H](C)[C@@H]1NC(=O)[C@H](CC(C)C)N(C)C(=O)C[C@@H](CC(C)C)N(C)C(=O)[C@H]([C@@H](C)CC)N(C)C(=O)C2(CCCC2)NC(=O)[C@@H]2CCCN2C(=O)[C@H](CCc2ccc(C(F)(F)F)c(Cl)c2)NC(=O)CN(C)C(=O)[C@H](Cc2ccc(C)cc2)N(C)C(=O)[C@@H]2CCN2C(=O)[C@H](C)N(C)C1=O` [Compound 1974] (cyclo([Ac5c][NMeI][X42][NMeL]I[NMeA][Aze][NMePhe(4-Me)][Sar][hPhe(3-Cl-4-CF3)]P)) has an IC50 of 45 nM.
`CCOCCN1CC(=O)NC2(CCCC2)C(=O)N(C)[C@@H](C2CCCCC2)C(=O)N(C)[C@H](C(=O)N2CCCCC2)CC(=O)N(C)[C@@H](CC(C)C)C(=O)N[C@@H]([C@@H](C)CC)C(=O)N(C)CC(=O)N(C)CC(=O)N(C)[C@@H](CC2CCCCC2)C(=O)N(C)CC(=O)N[C@@H](CCc2ccc(C(F)(F)F)c(Cl)c2)C1=O` [Compound 872, (11S,17S,26S,29S,33S,36S)-11-[2-[3-chloro-4-(trifluoromethyl)phenyl]ethyl]-36-cyclohexyl-17-(cyclohexylmethyl)-9-(2-ethoxyethyl)-29-isobutyl-15,18,21,24,30,34,37-heptamethyl-26-[(1S)-1-methylpropyl]-33-(piperidine-1-carbonyl)-6,9,12,15,18,21,24,27,30,34,37-undecazaspiro[4.33]octatriacontane-7,10,13,16,19,22,25,28,31,35,38-undecone] ([NMeL]I[Sar][Sar][NMeCha][Sar][hPhe(3-Cl-4-CF3)][Gly(N-(CH2)2OEt)][Ac5c][NMeChg][NMeD]-Piperidide; lactam N-11) showed an IC50 of 1.9 nM.
Work on `CCCCC[C@H]1C(=O)N(C)CC(=O)N[C@@H](CCc2ccc(C(F)(F)F)c(Cl)c2)C(=O)N2CCC[C@H]2C(=O)NC2(CCCC2)C(=O)N(C)[C@@H](C(C)C)C(=O)N(C)[C@H](C(=O)N2CCCCC2)CC(=O)N(C)[C@@H](CC(C)C)C(=O)N[C@@H]([C@@H](C)CC)C(=O)N(C)[C@@H](C)C(=O)N2CC[C@H]2C(=O)N1C` [Compound 1854] ([NMeL]I[NMeA][Aze][NMeAhp(2)][Sar][hPhe(3-Cl-4-CF3)]P[Ac5c][NMeV][NMeD]-Piperidide; lactam N-11) yielded an IC50 of 5.5 nM.
Work on `CC[C@H](C)[C@@H]1NC(=O)[C@H](CC(C)C)N(C)C(=O)C[C@@H](C(=O)N2CCCC2)NC(=O)[C@H]([C@@H](C)CC)N(C)C(=O)C2(CCCC2)NC(=O)[C@@H]2CCCN2C(=O)[C@H](CCc2ccc(C(F)(F)F)c(Cl)c2)NC(=O)CN(C)C(=O)[C@H](CC2CCCCC2)N(C)C(=O)[C@@H]2CCN2C(=O)[C@H](C)N(C)C1=O` [Compound 453] ([NMeL]I[NMeA][Aze][NMeCha][Sar][hPhe(3-Cl-4-CF3)]P[Ac5c][NMeI]D-Pyrrolidide; lactam N-11) yielded an IC50 of 17 nM.
For `CC[C@H](C)[C@@H]1NC(=O)[C@H](CC(C)C)N(C)C(=O)C[C@@H](C(=O)N2CCCCC2)N(C)C(=O)[C@H](C2CCCCC2)N(C)C(=O)C2(CCCC2)NC(=O)[C@@H]2C[C@@H](OCc3ccsc3)CN2C(=O)[C@H](CCc2ccc(C(F)(F)F)c(Cl)c2)NC(=O)CN(C)C(=O)[C@H](CC2CCCCC2)N(C)C(=O)CN(C)C(=O)CN(C)C1=O` [Compound 2124] ([NMeL]I[Sar][Sar][NMeCha][Sar][hPhe(3-Cl-4-CF3)][Hyp](X14)[Ac5c][NMeChg][NMeD]-Piperidide; lactam N-11), the IC50 was 0.91 nM.
For `C=CC[C@@H]1CC(=O)N(C)[C@@H](CC(C)C)C(=O)N[C@@H]([C@@H](C)CC)C(=O)N(C)[C@@H](C)C(=O)N2CC[C@H]2C(=O)N(C)[C@@H](Cc2ccc(C)cc2)C(=O)N(C)CC(=O)N[C@@H](CCc2ccc(C(F)(F)F)c(Cl)c2)C(=O)N2CCC[C@H]2C(=O)NC2(CCCC2)C(=O)N(C)[C@@H]([C@@H](C)CC)C(=O)N1` [Compound 1883] (cyclo([Ac5c][NMeI][X76][NMeL]I[NMeA][Aze][NMePhe(4-Me)][Sar][hPhe(3-Cl-4-CF3)]P)), the IC50 was 65 nM.
